Measured values as given in the supplement of paper PMC10307832.

Legend:
Test in all cases: relative viability (nuclei count vs DMSO), 5 days (fraction); higher = more cells survive
[1] = compound: Cn1nnc2c(C(N)=O)ncn2c1=O [Temozolomide] + CC(=O)Nc1cccc(-n2c(=O)n(C3CC3)c(=O)c3c(Nc4ccc(I)cc4F)n(C)c(=O)c(C)c32)c1 [Trametinib] (partner 0.02 µM)
In short: (§1)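 Medians of duplicate plates are given as relative viability. That measure is the nuclei count in treated wells divided by the count in vehicle wells. Counts were taken on 4× images of lung cancer cell lines in 1536-well plates, 5 days after pin-tool dosing the day after seeding with one drug alone or a fixed anchor-drug dose plus five library-drug doses (not always all listed) in √10 steps.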

[2] = compound: Cn1nnc2c(C(N)=O)ncn2c1=O [Temozolomide] + NC(=O)Nc1cc(-c2cccc(F)c2)sc1C(=O)N[C@H]1CCCNC1 [AZD7762] (partner 0.2 µM)
In short: as §1

[3] = compound: C[C@@H](C(=O)N[C@@H](C1CCCCC1)C(=O)N2CCC[C@H]2C(=O)N[C@@H]3[C@@H](CC4=CC=CC=C34)OCC#CC#CCO[C@@H]5CC6=CC=CC=C6[C@@H]5NC(=O)[C@@H]7CCCN7C(=O)[C@H](C8CCCCC8)NC(=O)[C@H](C)NC)NC [AZD5582] + Nc1ncn([C@H]2C[C@H](O)[C@@H](CO)O2)c(=O)n1 [Decitabine] (partner 2 µM)
In short: as §1

[4] = compound: C[C@@H](C(=O)N[C@@H](C1CCCCC1)C(=O)N2CCC[C@H]2C(=O)N[C@@H]3[C@@H](CC4=CC=CC=C34)OCC#CC#CCO[C@@H]5CC6=CC=CC=C6[C@@H]5NC(=O)[C@@H]7CCCN7C(=O)[C@H](C8CCCCC8)NC(=O)[C@H](C)NC)NC [AZD5582] + CS(=O)(=O)N1CCN(Cc2cc3nc(-c4cccc5[nH]ncc45)nc(N4CCOCC4)c3s2)CC1 [Pictilisib] (partner 1 µM)
In short: as §1

Cell Line	relative viability ([1]; first compound 0.2 µM)	relative viability ([1]; first compound 0.6325 µM)	relative viability ([1]; first compound 2 µM)	relative viability ([1]; first compound 20 µM)	relative viability ([2]; first compound 0.2 µM)	relative viability ([2]; first compound 0.6325 µM)	relative viability ([2]; first compound 2 µM)	relative viability ([2]; first compound 20 µM)	relative viability ([3]; first compound 0.001581 µM)	relative viability ([3]; first compound 0.005 µM)	relative viability ([3]; first compound 0.01581 µM)	relative viability ([3]; first compound 0.05 µM)	relative viability ([4]; first compound 0.001581 µM)	relative viability ([4]; first compound 0.005 µM)	relative viability ([4]; first compound 0.01581 µM)	relative viability ([4]; first compound 0.05 µM)	relative viability ([1]; first compound 6.325 µM)	relative viability ([2]; first compound 6.325 µM)
HCC-78	0.602	0.793	0.646	0.736	0.668	0.568	0.899	0.566	0.786	0.703	0.688	0.585	0.198	0.24	0.147	0.169		
HCC-366	0.395	0.31	0.427	0.329	0.286	0.258	0.376	0.338	0.346	0.37	0.386	0.395	0.0939	0.203	0.102	0.205	0.425	0.311
HCC-827	0.56	0.593	0.286	0.136	0.147	0.193	0.196	0.119	0.281	0.292	0.348	0.308	0.995	0.954	0.979	1.06	0.532	0.227
HOP-62	0.395	0.445	0.399	0.367	0.82	0.512	0.635	0.742	0.213	0.209	0.247	0.213	0.445	0.655	0.256	0.62	0.424	0.503
IA-LM														0.355	0.347	0.314		
NCI-H520	0.715	0.717	0.676	0.597					0.504	0.515	0.509	0.557	0.266	0.283	0.303	0.311	0.683	
NCI-H522	0.654	0.724	0.954	0.671	0.728	0.907	0.952	0.758	0.624	0.711	0.624	0.641					0.691	0.748
NCI-H661	0.513	0.564	0.654	0.562					0.525	0.571	0.573	0.556	0.36	0.416	0.403	0.399	0.528	
NCI-H1299													0.702	0.879	0.822	0.805		
NCI-H1563													0.644	0.642	0.62	0.729		
NCI-H1648		0.477	0.454	0.307		0.643	0.756	0.614	0.502	0.528		0.466					0.545	0.583
NCI-H1650	0.618	0.654	0.611	0.39					0.389	0.366	0.51	0.279	0.535	0.738	0.485	0.604	0.642	
NCI-H2009	0.279	0.273	0.389	0.265					0.4	0.355	0.412	0.363	0.741	0.998	0.467	0.705	0.268	
NCI-H2023	0.568	0.635	0.468	0.518					0.217	0.2	0.243	0.204	0.227	0.288	0.172	0.246	0.497	
NCI-H2228	0.286	0.617	0.432	0.537									0.286	0.352	0.378	0.193	0.459	
NCI-H2342	0.638	0.848	0.757	0.818	0.457	0.447	0.516	0.549	0.692	0.835	0.698	0.702					0.799	0.506
SK-LU-1	0.534	0.487	0.44	0.361					0.535	0.379	0.673	0.21	0.422	0.357	0.494	0.325	0.382	
SK-MES-1	0.656	0.578	0.663	0.58					0.336	0.365	0.416	0.347	0.391	0.475	0.4	0.433	0.539	
SW 900	0.728	0.783	0.966	0.59	0.587	0.63	0.583	0.683	0.372	0.364	0.38	0.246					1	0.627
SW 1573	0.688	0.504	0.56	0.474					0.551	0.631	0.674	0.685	0.487	0.612	0.635	0.674	0.583	
UMC-11	0.728	0.749	0.786	0.519					0.637	0.638	0.731	0.71	0.722	0.842	0.648	0.666	0.643	
